Test results published in patent US20060083790A1, “Combination of an ibat inhibitor and a metal salt for the treatment of diarrhoea” (priority 2002, published 2006).
Like-named read-outs stand apart in the source and are kept apart here.

Columns and labels:
[1] = 200 mg crystalline calcium phosphate in 10 ml, initial GDC 1-15 mM, pH 7.4, all samples
Description: A stock solution of sodium glycodeoxycholate (GDC) was prepared by dissolving the following substances in deionised water:
(§1) The pH was adjusted to 7.4 with sodium hydroxide.
(§2) A similar buffer solution with the same content, except for the bile acid was also prepared.
The resulting initial GDC concentrations in the samples were 1-15 mM. The samples were equilibrated for several hours. The solid material in the samples were removed by centrifugation and/or filtration, and the obtained clear supernatants were analysed with respect to GDC content. The analyses were carried out by HPLC.

[2] = 200 mg crystalline calcium phosphate in 10 ml, initial DC 1-20 mM, pH 7.4, all samples
Description: A stock solution of sodium deoxycholate (DC) was prepared by dissolving the following substances in deionised water:
as §1, §2
The resulting initial DC concentrations in the samples were 1-20 mM. The samples were equilibrated for several hours. The solid material in the samples were removed by centrifugation and/or filtration, and the obtained clear supernatants were analysed with respect to DC content. The analyses were carried out by HPLC.

[3] = dog
Description: The IBAT inhibitor is dosed orally at a dose that will cause diarrhoea, for example 25-50 μmol/kg. The metal salt is then introduced into the colon, through the fistulae, to see if the diarrhoea can be prevented. The dose of the metal salt varies and can be determined after analysing the bile acid concentration in faeces from dogs having been exposed to the same dose of the IBAT inhibitor.
A solution of an BAT inhibitor was administered directly into the stomach of the dog via an orogastric tube (t=0 hours). The dog was fed 30 minutes after the administration of the IBAT inhibitor (t=0.5 hours).
Faeces was collected during the first 8 hours after administration, and the time for each bowel movement was recorded. Each faeces sample was homogenized with a high-shear mixer and, subsequently, centrifuged in order to separate the solid material from the faecal water phase. The faecal water was collected and analysed with respect to bile acid content. The amount of bile acid in the faecal water was related to the amount of solid material in each faeces sample.

[4] = for Concentration of bile acids: pH 7.4, supernatant
Description: A solution containing a mixture of bile acids was prepared by dissolving the following components in deionised water:
The pH was adjusted to 7.4.
A calcium chloride solution was prepared by dissolving the following components in deionised water:
2.0 ml of the bile acid solution was added to each of 6 glass vials. A known volume, varying from 0 to 300 μl, of the calcium chloride solution was added to each vial. Each sample was inspected visually immediately after the calcium chloride addition. 1.5 ml of each sample was transferred into a centrifugation tube and centrifuged for 20 mins at 14 000 rpm. The clear supernatant was collected and analysed with respect to bile acid content. The analyses were carried out using a bile acid analysis kit which employs an enzymatic colour reaction. The concentration of bile acid is proportional to the colour intensity which is determined by spectrophotometry.

[5] = for Absorbance (taurocholate concentration after the enzymatic colour reaction): pH 6.5, supernatant
Description: A solution simulating the human intestinal fluid in the fasted state, FaSSIF, was prepared by dissolving the following components in deionised water.
The pH was adjusted to 6.5.
A separate solution of calcium chloride was prepared by dissolving 149.2 mM of the salt in deionised water.
5.0 ml of FaSSIF was added to each of 7 glass vials. A known volume, varying from 0 to 0.5 ml, of the calcium chloride solution was added to each vial. Each sample was inspected visually immediately after the calcium chloride addition.
A volume of 1.0 ml was withdrawn from each sample and centrifuged for 20 mins at 14 000 rpm. The clear supernatant of each sample was collected and analysed with respect to bile acid content. The analyses were carried out using a bile acid analysis kit which employs an enzymatic colour reaction. The concentration of bile acid is proportional to the colour intensity which is determined by spectrophotometry.

[6] = with increasing added amount of calcium chloride

Row | Compound | GDC concentration in supernatant (HPLC) [1] | DC concentration in supernatant (HPLC) [2] | Bile acid concentration in faecal water ([3]; IBAT inhibitor into the stomach at t=0, intracolonic calcium chloride at t=1 hour, as long as calcium chloride is present in the colon) | Time after which most of the calcium chloride has been removed from the colon ([3]; intracolonic administration, removed by absorption or by bowel movements) | Concentration of bile acids ([4]; 3.0 μmol calcium chloride added to 2.0 ml bile acid solution) [mM] | Concentration of bile acids ([4]; 6.0 μmol calcium chloride added to 2.0 ml bile acid solution) [mM] | Concentration of bile acids ([4]; 12.0 μmol calcium chloride added to 2.0 ml bile acid solution) [mM] | Concentration of bile acids ([4]; 30.0 μmol calcium chloride added to 2.0 ml bile acid solution) [mM] | Concentration of bile acids ([4]; 60.1 μmol calcium chloride added to 2.0 ml bile acid solution) [mM] | Visual inspection immediately after calcium chloride addition ([4]; bile acid mixture, all samples with calcium chloride) | Concentration of bile acids in the aqueous solution, trend [4, 6] | Absorbance (taurocholate concentration after the enzymatic colour reaction) ([5]; 7.5 μmol calcium chloride added to 5.0 ml FaSSIF) | Absorbance (taurocholate concentration after the enzymatic colour reaction) ([5]; 14.9 μmol calcium chloride added to 5.0 ml FaSSIF) | Absorbance (taurocholate concentration after the enzymatic colour reaction) ([5]; 22.4 μmol calcium chloride added to 5.0 ml FaSSIF) | Absorbance (taurocholate concentration after the enzymatic colour reaction) ([5]; 29.8 μmol calcium chloride added to 5.0 ml FaSSIF) | Absorbance (taurocholate concentration after the enzymatic colour reaction) ([5]; 44.8 μmol calcium chloride added to 5.0 ml FaSSIF) | Absorbance (taurocholate concentration after the enzymatic colour reaction) ([5]; 74.6 μmol calcium chloride added to 5.0 ml FaSSIF) | Visual inspection immediately after calcium chloride addition ([5]; FaSSIF, all samples with calcium chloride) | Concentration of taurocholate in the aqueous solution, trend [5, 6]
1 | calcium phosphate | reduced by the presence of calcium phosphate in all samples | reduced by the presence of calcium phosphate in all samples |  |  |  |  |  |  |  |  |  |  |  |  |  |  |  |  | 
2 | [Ca+2].[Cl-].[Cl-] [calcium chloride] |  |  | relatively constant | approximately 3.5 hours | 2.2 | 2.1 | 1.9 | 0.8 | 0.7 | a precipitate was formed in all samples | decreased with increasing added amount of calcium chloride | 0.0933 | 0.0890 | 0.0843 | 0.0783 | 0.0735 | 0.0718 | A precipitate was formed in all samples | decreased with increasing added amount of calcium chloride
